“And” between values parts separate entries of the source, which are not always exact repeats. Identical values can stand only once.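 Each compound was tested at five concentrations against cells in 96-well plates for 48 hours. Here, GI50 denotes the concentration required for 50% inhibition of growth. Definition used: TGI = concentration required for complete inhibition of growth.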
Columns and labels:
Assay in all cases: inhibition of tumour cell growth, NCI panel, 48 h
HT29 colon = test system: HT29 colon
IGROV1 ovarian = test system: IGROV1 ovarian
RXF 393 renal = test system: RXF 393 renal
SK-MEL-28 melanoma = test system: SK-MEL-28 melanoma
HCT-15 colon = test system: HCT-15 colon
OVCAR-3 ovarian = test system: OVCAR-3 ovarian
TK-10 renal = test system: TK-10 renal
MCF7 breast = test system: MCF7 breast
UACC-62 melanoma = test system: UACC-62 melanoma
BT-549 breast = test system: BT-549 breast

COc1cc2c(c(OC)c1OC)-c1ccc(NN(C(=O)c3ccccc3)C(=O)c3ccccc3)c(=O)cc1[C@@H](NC(C)=O)CC2 (tested in a mixture with another compound)
GI50 (HT29 colon): 2.93 µM
TGI (HT29 colon): 11.1 µM
GI50 (IGROV1 ovarian): 4.6 µM
TGI (IGROV1 ovarian): 63 µM
GI50 (RXF 393 renal): 2.24 µM
TGI (RXF 393 renal): 8 µM
GI50 (SK-MEL-28 melanoma): 8.76 µM
TGI (SK-MEL-28 melanoma): 29 µM
GI50 (HCT-15 colon): 3.64 µM
TGI (HCT-15 colon): 14.9 µM
GI50 (OVCAR-3 ovarian): 2.8 µM
TGI (OVCAR-3 ovarian): 13.4 µM
GI50 (TK-10 renal): 4.04 µM
TGI (TK-10 renal): 42.5 µM
GI50 (MCF7 breast): 3.84 µM
TGI (MCF7 breast): > 100 µM
GI50 (UACC-62 melanoma): 4.18 µM
TGI (UACC-62 melanoma): 42.1 µM
GI50 (BT-549 breast): 2.63 µM
TGI (BT-549 breast): 8.15 µM

COc1cc(-c2cc(/C=C/C(=O)c3ccc(F)c(F)c3)[nH]n2)cc(OC)c1OC
GI50 (HT29 colon): 2.62 µM
TGI (HT29 colon): 6.47 µM
GI50 (IGROV1 ovarian): 3.62 µM
TGI (IGROV1 ovarian): 87 µM
GI50 (RXF 393 renal): 2.05 µM
TGI (RXF 393 renal): 6.34 µM
GI50 (SK-MEL-28 melanoma): 5.31 µM
TGI (SK-MEL-28 melanoma): 28.2 µM
GI50 (HCT-15 colon): 3.01 µM
TGI (HCT-15 colon): > 100 µM
GI50 (OVCAR-3 ovarian): 2.39 µM
TGI (OVCAR-3 ovarian): 6.25 µM
GI50 (TK-10 renal): 2.29 µM
TGI (TK-10 renal): 7.41 µM
GI50 (MCF7 breast): 3.2 µM
TGI (MCF7 breast): 12.3 µM
GI50 (UACC-62 melanoma): 2.38 µM
TGI (UACC-62 melanoma): 7.44 µM
GI50 (BT-549 breast): 4.1 µM
TGI (BT-549 breast): 19.3 µM

CO[C@H]1C[C@@H]2CC[C@@H](C)[C@@](O)(O2)C(=O)C(=O)N2CCCC[C@H]2C(=O)O[C@H]([C@H](C)C[C@@H]2CC[C@@H](OC(=O)C(C)(CO)CO)[C@H](OC)C2)CC(=O)[C@H](C)/C=C(\C)[C@@H](O)[C@@H](OC)C(=O)[C@H](C)C[C@H](C)\C=C/C=C/C=C/1C
GI50 (HT29 colon): 1.47 µM
TGI (HT29 colon): > 10 µM
GI50 (IGROV1 ovarian): < 0.001 µM
TGI (IGROV1 ovarian): > 10 µM
GI50 (RXF 393 renal): < 0.001 µM
TGI (RXF 393 renal): > 10 µM
GI50 (SK-MEL-28 melanoma): 0.0219 µM
TGI (SK-MEL-28 melanoma): > 10 µM
GI50 (HCT-15 colon): 0.112 µM
TGI (HCT-15 colon): > 10 µM
GI50 (OVCAR-3 ovarian): 0.685 µM
TGI (OVCAR-3 ovarian): > 10 µM
TGI (TK-10 renal): > 10 µM
GI50 (MCF7 breast): 0.00422 µM
TGI (MCF7 breast): > 10 µM
GI50 (UACC-62 melanoma): 0.0087 µM
TGI (UACC-62 melanoma): > 10 µM
GI50 (BT-549 breast): 0.00363 µM
TGI (BT-549 breast): > 10 µM

CCCn1c2c(c3ccccc3c1=O)C(=O)c1ccccc1-2
TGI (HT29 colon): > 100 µM
TGI (IGROV1 ovarian): > 100 µM
TGI (RXF 393 renal): > 100 µM
TGI (SK-MEL-28 melanoma): > 100 µM
TGI (HCT-15 colon): > 100 µM
TGI (OVCAR-3 ovarian): > 100 µM
TGI (TK-10 renal): > 100 µM
TGI (MCF7 breast): > 100 µM
TGI (UACC-62 melanoma): > 100 µM
TGI (BT-549 breast): > 100 µM

O=C1/C(=C/c2ccc(Cl)c(Cl)c2)CN(C(=O)C(Cl)Cl)C/C1=C\c1ccc(Cl)c(Cl)c1
GI50 (HT29 colon): 0.071 µM
TGI (HT29 colon): 2.07 µM
GI50 (IGROV1 ovarian): 0.103 µM
TGI (IGROV1 ovarian): 0.306 µM
GI50 (RXF 393 renal): 0.164 µM
TGI (RXF 393 renal): 0.337 µM
GI50 (SK-MEL-28 melanoma): 0.252 µM
TGI (SK-MEL-28 melanoma): 0.634 µM
GI50 (HCT-15 colon): 0.033 µM
TGI (HCT-15 colon): 0.802 µM
GI50 (OVCAR-3 ovarian): 0.0571 µM
TGI (OVCAR-3 ovarian): 0.237 µM
GI50 (TK-10 renal): 0.353 µM
TGI (TK-10 renal): 1.23 µM
GI50 (MCF7 breast): 0.037 µM
TGI (MCF7 breast): 1.37 µM
GI50 (UACC-62 melanoma): 0.197 µM
TGI (UACC-62 melanoma): 0.459 µM
GI50 (BT-549 breast): 0.228 µM
TGI (BT-549 breast): 0.701 µM

CCCCN(CCCC)C(=O)[C@H](CC)[C@@H]1CC[C@@H](C)[C@@H]([C@H](C)[C@@H](O)[C@@H](C)C(=O)[C@H](CC)C2O[C@]3(C=C[C@@H](O)[C@]4(CC[C@@](C)([C@H]5CC[C@](O)(CC)[C@H](C)O5)O4)O3)[C@H](C)C[C@@H]2C)O1 (stereo not given in full)
GI50 (HT29 colon): 2.88 µM
TGI (HT29 colon): 12.4 µM
GI50 (IGROV1 ovarian): 3 µM
TGI (IGROV1 ovarian): 15.2 µM
GI50 (RXF 393 renal): 1.59 µM
TGI (RXF 393 renal): 3.37 µM
GI50 (SK-MEL-28 melanoma): 4.21 µM
TGI (SK-MEL-28 melanoma): 81.1 µM
GI50 (HCT-15 colon): 2.31 µM
TGI (HCT-15 colon): 6.12 µM
GI50 (OVCAR-3 ovarian): 1.87 µM
TGI (OVCAR-3 ovarian): 4.84 µM
GI50 (TK-10 renal): 3.57 µM
TGI (TK-10 renal): > 100 µM
GI50 (MCF7 breast): 2.4 µM
TGI (MCF7 breast): 7.77 µM
GI50 (UACC-62 melanoma): 1.47 µM
TGI (UACC-62 melanoma): 3.6 µM
GI50 (BT-549 breast): 2.73 µM
TGI (BT-549 breast): 11.3 µM

CC1CC2C3CCC4=CC(=O)C=CC4(C)C3(F)C(O)CC2(C)C1(O)C(=O)COP(=O)(O)O (stereo not given)
GI50 (HT29 colon): > 500 µM
TGI (HT29 colon): > 500 µM
GI50 (IGROV1 ovarian): > 500 µM
TGI (IGROV1 ovarian): > 500 µM
GI50 (RXF 393 renal): > 500 µM
TGI (RXF 393 renal): > 500 µM
GI50 (SK-MEL-28 melanoma): > 500 µM
TGI (SK-MEL-28 melanoma): > 500 µM
GI50 (HCT-15 colon): > 500 µM
TGI (HCT-15 colon): > 500 µM
GI50 (OVCAR-3 ovarian): > 500 µM
TGI (OVCAR-3 ovarian): > 500 µM
GI50 (TK-10 renal): > 500 µM
TGI (TK-10 renal): > 500 µM
GI50 (MCF7 breast): > 500 µM
TGI (MCF7 breast): > 500 µM
GI50 (UACC-62 melanoma): > 500 µM
TGI (UACC-62 melanoma): > 500 µM
GI50 (BT-549 breast): 160 µM
TGI (BT-549 breast): > 500 µM

N#CCn1c(=O)c(Oc2ccc(F)cc2F)cc2cnc(NC3CCOCC3)nc21
GI50 (HT29 colon): > 25 µM
TGI (HT29 colon): > 25 µM
GI50 (IGROV1 ovarian): > 25 µM
TGI (IGROV1 ovarian): > 25 µM
GI50 (RXF 393 renal): > 17.9 µM
TGI (RXF 393 renal): > 25 µM
GI50 (SK-MEL-28 melanoma): > 25 µM
TGI (SK-MEL-28 melanoma): > 25 µM
GI50 (HCT-15 colon): > 25 µM
TGI (HCT-15 colon): > 25 µM
GI50 (OVCAR-3 ovarian): > 25 µM
TGI (OVCAR-3 ovarian): > 25 µM
GI50 (TK-10 renal): > 25 µM
TGI (TK-10 renal): > 25 µM
GI50 (MCF7 breast): > 25 µM
TGI (MCF7 breast): > 25 µM
GI50 (UACC-62 melanoma): > 25 µM
TGI (UACC-62 melanoma): > 25 µM
GI50 (BT-549 breast): 24.8 µM
TGI (BT-549 breast): > 25 µM

CC(=O)OCC1OC(n2c(=S)n(-c3ccc([N+](=O)[O-])cc3)c(=O)c3ccccc32)C(OC(C)=O)C(OC(C)=O)C1OC(C)=O (stereo not given)
TGI (HT29 colon): > 100 µM
GI50 (IGROV1 ovarian): 29.2 µM and 20.4 µM
TGI (IGROV1 ovarian): > 71 µM and 54.5 µM
GI50 (RXF 393 renal): 4.61 µM and 14.3 µM
TGI (RXF 393 renal): 17.1 µM and 29.6 µM
GI50 (SK-MEL-28 melanoma): 31 µM and 20.7 µM
TGI (SK-MEL-28 melanoma): > 82.5 µM and 59.7 µM
TGI (HCT-15 colon): > 100 µM
GI50 (OVCAR-3 ovarian): 20 µM
TGI (OVCAR-3 ovarian): 47.5 µM and 49.8 µM
GI50 (TK-10 renal): 19.9 µM and 40.3 µM
TGI (TK-10 renal): 65.2 µM and 75.1 µM
TGI (MCF7 breast): 52.6 µM
GI50 (UACC-62 melanoma): 17.6 µM
TGI (UACC-62 melanoma): 34 µM and 40.7 µM
TGI (BT-549 breast): 26.7 µM

CN=C(N)c1ccc(N=C(N)c2ccc(-c3ccc(C(N)=Nc4ccc(C(N)=NC)cc4)cc3)cc2)cc1
GI50 (HT29 colon): 62.8 µM
TGI (HT29 colon): > 100 µM
GI50 (IGROV1 ovarian): 38.6 µM
TGI (IGROV1 ovarian): > 100 µM
GI50 (RXF 393 renal): 39.4 µM
TGI (RXF 393 renal): > 100 µM
GI50 (SK-MEL-28 melanoma): 41.8 µM
TGI (SK-MEL-28 melanoma): > 100 µM
GI50 (HCT-15 colon): > 100 µM
TGI (HCT-15 colon): > 100 µM
GI50 (OVCAR-3 ovarian): > 100 µM
TGI (OVCAR-3 ovarian): > 100 µM
GI50 (TK-10 renal): 35.9 µM
TGI (TK-10 renal): 97.1 µM
GI50 (MCF7 breast): 19 µM
TGI (MCF7 breast): > 100 µM
GI50 (UACC-62 melanoma): 30.5 µM
TGI (UACC-62 melanoma): > 100 µM
GI50 (BT-549 breast): > 100 µM
TGI (BT-549 breast): > 100 µM

Cc1cc(=O)oc2ccc(OC/C=C3\CCC(=O)O3)cc12
GI50 (HT29 colon): 3.62 µM
TGI (HT29 colon): 15.5 µM
GI50 (IGROV1 ovarian): 3.3 µM
TGI (IGROV1 ovarian): 16.4 µM
GI50 (RXF 393 renal): 5.85 µM
TGI (RXF 393 renal): 21.3 µM
GI50 (SK-MEL-28 melanoma): 11.3 µM
TGI (SK-MEL-28 melanoma): 23.5 µM
GI50 (HCT-15 colon): 3.5 µM
TGI (HCT-15 colon): 11.5 µM
GI50 (OVCAR-3 ovarian): 3.59 µM
TGI (OVCAR-3 ovarian): 18.4 µM
GI50 (TK-10 renal): 1.61 µM
TGI (TK-10 renal): 9.23 µM
GI50 (MCF7 breast): 2.36 µM
TGI (MCF7 breast): 13.3 µM
GI50 (UACC-62 melanoma): 10.3 µM
TGI (UACC-62 melanoma): 22.8 µM
GI50 (BT-549 breast): 7.49 µM
TGI (BT-549 breast): 23.4 µM

NS(=O)(=O)c1ccc(Nc2cc(-c3ccc(O)c(F)c3)[nH]n2)cc1
GI50 (HT29 colon): > 25 µM
TGI (HT29 colon): > 25 µM
GI50 (IGROV1 ovarian): > 25 µM
TGI (IGROV1 ovarian): > 25 µM
GI50 (RXF 393 renal): > 25 µM
TGI (RXF 393 renal): > 25 µM
GI50 (SK-MEL-28 melanoma): > 25 µM
TGI (SK-MEL-28 melanoma): > 25 µM
GI50 (HCT-15 colon): > 25 µM
TGI (HCT-15 colon): > 25 µM
GI50 (OVCAR-3 ovarian): 9.43 µM
TGI (OVCAR-3 ovarian): > 25 µM
GI50 (TK-10 renal): > 25 µM
TGI (TK-10 renal): > 25 µM
GI50 (MCF7 breast): > 25 µM
TGI (MCF7 breast): > 25 µM
GI50 (UACC-62 melanoma): > 25 µM
TGI (UACC-62 melanoma): > 25 µM
GI50 (BT-549 breast): 8.66 µM
TGI (BT-549 breast): > 25 µM

— PubChem BioAssay (NCI)
